# Source: patent US9611267B2, “Substituted tricyclic compounds as FGFR inhibitors” (Incyte Corporation, priority 2012, dated 2017)
# What was measured:
# Type in all cases: biochemical
# FGFR3 = FGFR3 (Homo sapiens (Human), UniProt P22607); test: FGFR enzymatic assay (FRET peptide phosphorylation), FGFR3; conditions: FGFR3 enzyme (Millipore), ATP 140 μM
# Method in brief: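 After 5-10 min pre-incubation of FGFR3 with serially diluted compound in pH 7.5 HEPES/MgCl2/EGTA/DTT buffer, the reaction proceeded 1 hr at 25° C. Phosphorylated peptide was detected by FRET, and IC50 was fitted with a variable-slope sigmoid.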
# FGFR1 = FGFR1 (Homo sapiens (Human), UniProt P11362); test: FGFR enzymatic assay (FRET peptide phosphorylation), FGFR1; conditions: FGFR1 enzyme 0.02 nM, ATP 210 μM
# Chain of FGFR1 (P11362 22-822): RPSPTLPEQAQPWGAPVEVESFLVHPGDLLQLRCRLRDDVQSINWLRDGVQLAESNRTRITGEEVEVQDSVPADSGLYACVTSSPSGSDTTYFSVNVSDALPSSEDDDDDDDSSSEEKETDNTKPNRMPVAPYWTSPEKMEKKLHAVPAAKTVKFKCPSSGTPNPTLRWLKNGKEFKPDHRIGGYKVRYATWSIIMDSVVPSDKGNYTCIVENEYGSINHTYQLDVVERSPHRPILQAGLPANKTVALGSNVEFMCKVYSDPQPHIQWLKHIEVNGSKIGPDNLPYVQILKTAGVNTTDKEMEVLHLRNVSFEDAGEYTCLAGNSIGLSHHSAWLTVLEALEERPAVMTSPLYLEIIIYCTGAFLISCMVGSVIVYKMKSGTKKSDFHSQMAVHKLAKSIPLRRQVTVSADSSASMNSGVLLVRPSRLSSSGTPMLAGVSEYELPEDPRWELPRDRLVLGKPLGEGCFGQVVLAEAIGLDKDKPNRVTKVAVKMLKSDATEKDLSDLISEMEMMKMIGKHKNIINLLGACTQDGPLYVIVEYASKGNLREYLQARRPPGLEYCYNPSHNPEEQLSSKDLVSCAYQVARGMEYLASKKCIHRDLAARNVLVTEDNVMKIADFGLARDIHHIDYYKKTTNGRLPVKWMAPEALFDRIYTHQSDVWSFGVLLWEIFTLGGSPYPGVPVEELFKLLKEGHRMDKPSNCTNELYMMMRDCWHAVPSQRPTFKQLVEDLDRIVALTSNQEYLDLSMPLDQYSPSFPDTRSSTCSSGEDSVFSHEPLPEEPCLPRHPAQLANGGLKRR
# Method in brief: (§1)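 IC50 values were obtained from variable-slope sigmoidal dose-response fitting of a FRET read-out of peptide phosphorylation. The buffer, described for FGFR3, was 50 mM HEPES pH 7.5 with MgCl2, EGTA, Tween-20 and DTT.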
# FGFR2 = FGFR2 (Homo sapiens (Human), UniProt P21802); test: FGFR enzymatic assay (FRET peptide phosphorylation), FGFR2; conditions: FGFR2 enzyme 0.01 nM, ATP 100 μM
# Chain of FGFR2 (P21802 22-821): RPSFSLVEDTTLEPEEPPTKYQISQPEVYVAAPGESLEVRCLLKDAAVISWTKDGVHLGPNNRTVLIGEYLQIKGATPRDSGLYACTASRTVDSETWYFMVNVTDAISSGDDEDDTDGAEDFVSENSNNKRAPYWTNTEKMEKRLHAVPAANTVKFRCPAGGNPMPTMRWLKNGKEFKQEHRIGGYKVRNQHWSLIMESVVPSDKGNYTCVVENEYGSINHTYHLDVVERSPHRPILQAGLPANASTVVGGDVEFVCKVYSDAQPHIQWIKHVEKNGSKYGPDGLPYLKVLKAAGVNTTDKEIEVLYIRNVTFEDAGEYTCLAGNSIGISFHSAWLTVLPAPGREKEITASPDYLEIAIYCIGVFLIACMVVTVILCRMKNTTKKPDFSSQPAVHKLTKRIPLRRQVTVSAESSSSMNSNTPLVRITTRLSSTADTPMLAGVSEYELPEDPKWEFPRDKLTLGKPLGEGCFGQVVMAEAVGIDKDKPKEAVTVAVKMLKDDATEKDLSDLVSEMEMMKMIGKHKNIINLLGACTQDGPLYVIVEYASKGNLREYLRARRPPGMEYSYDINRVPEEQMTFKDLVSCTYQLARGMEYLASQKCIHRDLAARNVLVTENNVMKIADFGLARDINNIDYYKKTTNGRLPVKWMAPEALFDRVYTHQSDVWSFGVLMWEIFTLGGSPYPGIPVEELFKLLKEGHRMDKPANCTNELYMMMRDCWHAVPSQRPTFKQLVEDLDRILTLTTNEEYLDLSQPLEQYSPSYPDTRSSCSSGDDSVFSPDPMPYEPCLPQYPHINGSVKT
# Method in brief: as §1
# Chain of FGFR3 (P22607 23-806): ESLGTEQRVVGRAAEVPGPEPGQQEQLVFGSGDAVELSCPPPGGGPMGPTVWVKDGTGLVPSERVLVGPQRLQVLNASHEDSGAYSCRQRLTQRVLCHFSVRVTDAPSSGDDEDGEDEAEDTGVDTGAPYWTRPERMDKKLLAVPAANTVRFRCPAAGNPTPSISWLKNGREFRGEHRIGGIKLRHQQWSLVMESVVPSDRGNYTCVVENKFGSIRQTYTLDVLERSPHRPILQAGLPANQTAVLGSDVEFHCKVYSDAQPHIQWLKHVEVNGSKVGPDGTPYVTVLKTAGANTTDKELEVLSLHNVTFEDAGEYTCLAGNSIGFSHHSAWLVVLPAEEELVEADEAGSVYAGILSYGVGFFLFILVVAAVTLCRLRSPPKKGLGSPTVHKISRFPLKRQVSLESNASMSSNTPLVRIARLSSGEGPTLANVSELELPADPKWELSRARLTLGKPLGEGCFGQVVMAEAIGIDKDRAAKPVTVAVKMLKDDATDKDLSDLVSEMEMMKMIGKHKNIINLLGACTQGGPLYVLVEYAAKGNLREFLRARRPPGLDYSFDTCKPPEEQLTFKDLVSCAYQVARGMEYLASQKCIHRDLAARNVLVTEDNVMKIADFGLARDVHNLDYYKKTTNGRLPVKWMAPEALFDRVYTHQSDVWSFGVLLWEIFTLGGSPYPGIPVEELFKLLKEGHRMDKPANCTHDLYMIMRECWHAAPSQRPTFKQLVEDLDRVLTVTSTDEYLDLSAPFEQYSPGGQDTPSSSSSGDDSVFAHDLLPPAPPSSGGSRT
SMILES,IC50 (FGFR3),IC50 (FGFR1),IC50 (FGFR2)
"COc1cc(OC)c(Cl)c(N2Cc3cnc4c(c3N(c3cccc(F)c3F)C2=O)CC(=O)N4)c1F [Example 124, 3-(2-chloro-6-fluoro-3,5-dimethoxyphenyl)-1-(2,3-difluorophenyl)-3,4,7,9-tetrahydro-1H-pyrrolo[3′,2′:5,6]pyrido[4,3-d]pyrimidine-2,8-dione]",< 100 nM,< 100 nM,< 100 nM
"COc1cc(OC)c(F)c(N2Cc3cnc4[nH]c(CN5CCN(C)CC5)cc4c3N(C)C2=O)c1F [Example 129, 3-(2,6-difluoro-3,5-dimethoxyphenyl)-1-methyl-8-[(4-methylpiperazin-1-yl)methyl]-1,3,4,7-tetrahydro-2H-pyrrolo[3′,2′:5,6]pyrido[4,3-d]pyrimidin-2-one]",< 100 nM,< 100 nM,< 100 nM
"COc1cc(OC)c(F)c(N2Cc3cnc4[nH]c(CN5CCN(CCO)CC5)cc4c3N(C)C2=O)c1F [Example 130, 3-(2,6-difluoro-3,5-dimethoxyphenyl)-8-{[4-(2-hydroxyethyl)piperazin-1-yl]methyl}-1-methyl-1,3,4,7-tetrahydro-2H-pyrrolo[3′,2′:5,6]pyrido[4,3-d]pyrimidin-2-one]",< 100 nM,< 100 nM,< 100 nM
"COc1cc(OC)c(F)c(N2Cc3cnc4[nH]c(CN5CCN(CCC#N)CC5)cc4c3N(C)C2=O)c1F [Example 131, 3-(4-{[3-(2,6-difluoro-3,5-dimethoxyphenyl)-1-methyl-2-oxo-2,3,4,7-tetrahydro-1H-pyrrolo[3′,2′:5,6]pyrido[4,3-d]pyrimidin-8-yl]methyl}piperazin-1-yl)propanenitrile]",< 100 nM,< 100 nM,< 100 nM
"COc1cc(OC)c(F)c(N2Cc3cnc4[nH]c(CN5CCC(C#N)CC5)cc4c3N(C)C2=O)c1F [Example 132, 1-{[3-(2,6-difluoro-3,5-dimethoxyphenyl)-1-methyl-2-oxo-2,3,4,7-tetrahydro-1H-pyrrolo[3′,2′:5,6]pyrido[4,3-d]pyrimidin-8-yl]methyl}piperidine-4-carbonitrile]",< 100 nM,< 100 nM,< 100 nM
"COc1cc(OC)c(F)c(N2Cc3cnc4[nH]c(CNC5CCN(C)CC5)cc4c3N(C)C2=O)c1F [Example 134, 3-(2,6-difluoro-3,5-dimethoxyphenyl)-1-methyl-8-{[(1-methylpiperidin-4-yl)amino]methyl}-1,3,4,7-tetrahydro-2Hpyrrolo[3′,2′:5,6]pyrido[4,3-d]pyrimidin-2-one]",< 100 nM,< 100 nM,< 100 nM
"COc1cc(OC)c(F)c(N2Cc3cnc4[nH]c(Cn5cccn5)cc4c3N(C)C2=O)c1F [Example 138, 3-(2,6-difluoro-3,5-dimethoxyphenyl)-1-methyl-8-(1H-pyrazol-1-ylmethyl)-1,3,4,7-tetrahydro-2H-pyrrolo[3′,2′:5,6]pyrido[4,3-d]pyrimidin-2-one]",< 100 nM,< 100 nM,< 100 nM
"COc1cc(OC)c(F)c(N2Cc3cnc4[nH]c(Cc5cnn(C)c5)cc4c3N(C)C2=O)c1F [Example 139, 3-(2,6-difluoro-3,5-dimethoxyphenyl)-1-methyl-8-[(1-methyl-1H-pyrazol-4-yl)methyl]-1,3,4,7-tetrahydro-2H-pyrrolo[3′,2′:5,6]pyrido[4,3-d]pyrimidin-2-one]",< 100 nM,< 100 nM,< 100 nM
"COc1cc(OC)c(F)c(N2Cc3cnc4[nH]c(CCN5CC(F)C5)cc4c3N(C)C2=O)c1F [Example 143, 3-(2,6-difluoro-3,5-dimethoxyphenyl)-8-[2-(3-fluoroazetidin-1-yl)ethyl]-1-methyl-1,3,4,7-tetrahydro-2Hpyrrolo[3′,2′:5,6]pyrido[4,3-d]pyrimidin-2-one]",< 100 nM,< 100 nM,< 100 nM

# The next lines start with the values.
IC50 (FGFR3),IC50 (FGFR1),IC50 (FGFR2),SMILES
< 100 nM,< 100 nM,< 100 nM,"COc1cc(OC)c(F)c(N2Cc3cnc4c(c3N(c3ccc(C#N)cc3F)C2=O)CC(=O)N4)c1F [Example 125, 4-[3-(2,6-difluoro-3,5-dimethoxyphenyl)-2,8-dioxo-2,3,4,7,8,9-hexahydro-1H-pyrrolo[3′,2′:5,6]pyrido[4,3-d]pyrimidin-1-yl]-3-fluorobenzonitrile]"
< 100 nM,< 100 nM,< 100 nM,"CCN1C(=O)N(c2c(F)c(OC)cc(OC)c2F)Cc2cnc3[nH]c(CN4CCN(C)CC4)cc3c21 [Example 127, 3-(2,6-difluoro-3,5-dimethoxyphenyl)-1-ethyl-8-[(4-methylpiperazin-1-yl)methyl]-1,3,4,7-tetrahydro-2H-pyrrolo[3′,2′:5,6]pyrido[4,3-d]pyrimidin-2-one]"
< 100 nM,< 100 nM,< 100 nM,"COc1cc(OC)c(F)c(N2Cc3cnc4[nH]c(CN5CC[C@H](C#N)C5)cc4c3N(C)C2=O)c1F [Example 133, (3S)-1-{[3-(2,6-difluoro-3,5-dimethoxyphenyl)-1-methyl-2-oxo-2,3,4,7-tetrahydro-1H-pyrrolo[3′,2′:5,6]pyrido[4,3-d]pyrimidin-8-yl]methyl}pyrrolidine-3-carbonitrile]"
< 100 nM,< 100 nM,< 100 nM,"COc1cc(OC)c(F)c(N2Cc3cnc4[nH]c(CN[C@H]5CCOC5)cc4c3N(C)C2=O)c1F [Example 135, 3-(2,6-difluoro-3,5-dimethoxyphenyl)-1-methyl-8-{[(3S)-tetrahydrofuran-3-ylamino]methyl}-1,3,4,7-tetrahydro-2Hpyrrolo[3′,2′:5,6]pyrido[4,3-d]pyrimidin-2-one]"
< 100 nM,< 100 nM,< 100 nM,"COc1cc(OC)c(F)c(N2Cc3cnc4[nH]c(CN[C@@H]5CCOC5)cc4c3N(C)C2=O)c1F [Example 136, 3-(2,6-difluoro-3,5-dimethoxyphenyl)-1-methyl-8-{[(3R)-tetrahydrofuran-3-ylamino]methyl}-1,3,4,7-tetrahydro-2Hpyrrolo[3′,2′:5,6]pyrido[4,3-d]pyrimidin-2-one]"
< 100 nM,< 100 nM,< 100 nM,"COc1cc(OC)c(F)c(N2Cc3cnc4[nH]c(Cn5ccnc5)cc4c3N(C)C2=O)c1F [Example 137, 3-(2,6-difluoro-3,5-dimethoxyphenyl)-8-(1H-imidazol-1-ylmethyl)-1-methyl-1,3,4,7-tetrahydro-2H-pyrrolo[3′,2′:5,6]pyrido[4,3-d]pyrimidin-2-one]"
< 100 nM,< 100 nM,< 100 nM,"COc1cc(OC)c(F)c(N2Cc3cnc4[nH]c(CCc5ccccn5)cc4c3N(C)C2=O)c1F [Example 140, 3-(2,6-difluoro-3,5-dimethoxyphenyl)-1-methyl-8-(2-pyridin-2-ylethyl)-1,3,4,7-tetrahydro-2H-pyrrolo[3′,2′:5,6]pyrido[4,3-d]pyrimidin-2-one]"
< 100 nM,< 100 nM,< 100 nM,"CCN1C(=O)N(c2c(F)c(OC)cc(OC)c2Cl)Cc2cnc3[nH]c(CN4CCOCC4)cc3c21 [Example 141, 3-(2-chloro-6-fluoro-3,5-dimethoxyphenyl)-1-ethyl-8-(morpholin-4-ylmethyl)-1,3,4,7-tetrahydro-2H-pyrrolo[3′,2′:5,6]pyrido[4,3-d]pyrimidin-2-one]"
< 100 nM,< 100 nM,< 100 nM,"COc1cc(OC)c(F)c(N2Cc3cnc4[nH]c(CCN5CC(OC)C5)cc4c3N(C)C2=O)c1F [Example 144, 3-(2,6-difluoro-3,5-dimethoxyphenyl)-8-[2-(3-methoxyazetidin-1-yl)ethyl]-1-methyl-1,3,4,7-tetrahydro-2Hpyrrolo[3′,2′:5,6]pyrido[4,3-d]pyrimidin-2-one]"
< 100 nM,< 100 nM,< 100 nM,"COc1cc(OC)c(Cl)c(N2Cc3cnc4[nH]ncc4c3N(c3cnn(C)c3)C2=O)c1F [Example 145, 3-(2-chloro-6-fluoro-3,5-dimethoxyphenyl)-1-(1-methyl-1H-pyrazol-4-yl)-1,3,4,7-tetrahydro-2H-pyrazolo[4′,3′:5,6]pyrido[4,3-d]pyrimidin-2-one]"
< 100 nM,< 100 nM,< 100 nM,"COc1cc(OC)c(F)c(N2Cc3cnc4[nH]c(CCN5CCOCC5)cc4c3N(CCO)C2=O)c1F [Example 146, 3-(2,6-difluoro-3,5-dimethoxyphenyl)-1-(2-hydroxyethyl)-8-(2-morpholin-4-ylethyl)-1,3,4,7-tetrahydro-2H-pyrrolo[3′,2′:5,6]pyrido[4,3-d]pyrimidin-2-one]"
< 100 nM,< 100 nM,< 100 nM,"COc1cc(OC)c(F)c(N2Cc3cnc4c(c3N(c3ncccc3Cl)C2=O)CC(=O)N4)c1F [Example 147, 1-(3-chloropyridin-2-yl)-3-(2,6-difluoro-3,5-dimethoxyphenyl)-3,4,7,9-tetrahydro-1H-pyrrolo[3′,2′:5,6]pyrido[4,3-d]pyrimidine-2,8-dione]"
< 100 nM,< 100 nM,< 100 nM,"COc1cc(OC)c(F)c(N2Cc3cnc4[nH]ccc4c3C3(CCC3)C2=O)c1F [Example 148, 7′-(2,6-difluoro-3,5-dimethoxyphenyl)-6′,7′-dihydrospiro[cyclobutane-1,9′-pyrrolo[2,3-c][2,7]naphthyridin]-8′(3′H)-one]"
< 100 nM,< 100 nM,< 100 nM,"COc1cc(OC)c(F)c(N2Cc3cnc4[nH]ccc4c3C3(CCCC3)C2=O)c1F [Example 149, 7′-(2,6-difluoro-3,5-dimethoxyphenyl)-6′,7′-dihydrospiro[cyclopentane-1,9′-pyrrolo[2,3-c][2,7]naphthyridin]-8′(3′H)-one]"
